Experimental data reported in US20240287429A1, “MEDICINAL AGENT EFFECT PREDICTION SYSTEM” (Tohoku Institute of Technology, priority 2021, published 2024).

What was measured:
[1] = test system: peripheral nerves; settings: stated as known; not the applicant's own test; cited from earlier work
[2] = test system: neurites growing from nerve cells (rat DRG cells); assay: assessment by medicinal agent effect prediction system: microscope image of neurites cultured in the microfluidic device, applied to learned model M1; type: cell-based; settings: image of FIG. 10 applied to learned model M1; result shown in FIG. 11
Excerpt: FIG. 7A to FIG. 7D are observation images obtained by culturing nerve cells 41 in the microfluidic devices 30 using culture solutions respectively containing different known substances and observing, with a microscope, neurites 42 located in the second culture spaces 37. It should be noted that rat DRG cells are herein used as nerve cells 41, but various cells such as mouse DRG cells, human ES cells, or human iPS cells can be used.
Then, neurites 42 growing from the nerve cells 41 and located in the second culture space 37 were observed by the microscope 50 to obtain an observation image.
Image data based on the observation image was input as input data for assessment i42t to the system 10 through the data input receiving unit 11. In the system 10, the assessment unit 15 applied the input data for assessment i42t to the learned model M1. That is, features based on the input data for assessment i42t were applied to the input layer of the learned model M1. As a result, the result of assessment shown in FIG. 11 was output from the display output unit 17.
The percentage of correct answers is further improved by increasing the number of samples of teaching data and the number of times of learning.

| result of assessment (impaired nerve site predicted by the system) [2] | SMILES | impairment of peripheral nerves the substance is known to cause [1] |
| --- | --- | --- |
| – | OC[C@H]1O[C@@](CO)(O[C@H]2O[C@H](CO)[C@@H](O)[C@H](O)[C@H]2O)[C@@H](O)[C@@H]1O [Sucrose] | not to be toxic to peripheral nerves |
| high possibility of causing axonopathy | CC(=O)O[C@H]1C(=O)[C@@]2(C)[C@H]([C@H](OC(=O)c3ccccc3)[C@]3(O)C[C@H](OC(=O)[C@H](O)[C@@H](NC(=O)c4ccccc4)c4ccccc4)C(C)=C1C3(C)C)[C@]1(OC(C)=O)CO[C@@H]1C[C@@H]2O [Paclitaxel] | – |
| – | O=C1[O][Pt]2([NH][C@@H]3CCCC[C@H]3[NH]2)[O]C1=O [Oxaliplatin] | neuronopathy |
| – | CC[C@]1(O)C[C@H]2CN(CCc3c([nH]c4ccccc34)[C@@](C(=O)OC)(c3cc4c(cc3OC)N(C=O)[C@H]3[C@@](O)(C(=O)OC)[C@H](OC(C)=O)[C@]5(CC)C=CCN6CC[C@]43[C@@H]65)C2)C1 [Vincristine] | axonopathy |
